Format in all cases: in vivo
In experiment [1] the test system is Blattella germanica. The experiment in a line: Knockdown spray test on Blattella germanica, 2.0% w/v oil formulation (Test Example 1). As to conditions: topical, 0.25 h, active ingredient 2.0% w/v, 1.5 ml sprayed, within 15 minutes, read-out: knockdown rate of the test insects within 15 minutes. The method, then:
Ten Blattella germanica (5 males and 5 females) were released in a test container (8.75 cm in diameter, 7.5 cm in height, and the bottom made of 16 mesh metallic wire) with the inner wall on which butter was applied, and the container was placed on the bottom of a test chamber (bottom: 46 cm×46 cm, height: 70 cm). From a height of 60 cm above the upper surface of the container, 1.5 ml of the test drug solution was sprayed using a spray gun (a spraying pressure of 0.42 kg/cm^2). Thirty seconds after spraying, the container was taken out from the test chamber, and after 2 minutes, 5 minutes and 15 minutes, the number of knocked-down insects was counted to obtain a knockdown rate. The knockdown rate was calculated by the following equation.
Knockdown Rate (%)=(Number of Knocked-down Insects/Number of Tested Insects)×100

The subject of another experiment is Culex pipiens pallens. The experiment in a line: Knockdown spray test on adult Culex pipiens pallens (Test Example 4). As to conditions: topical, 0.25 h, active ingredient 0.1% w/v, 0.5 ml sprayed, within 15 minutes, read-out: knockdown rate of the test insects within 15 minutes. Put shortly:
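Knockdown counts were taken 2, 5 and 15 min after spraying and expressed as percent of the 10 adults tested. For the spray, 0.5 ml of solution was applied by spray gun (0.4 kg/cm^2) from 30 cm above a gauze-covered cup in a test chamber; the cup was taken out right after spraying.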

For experiment [2], the system named is Blattella germanica. The experiment in a line: Knockdown spray test on Blattella germanica, 0.1% w/v oil formulation (Test Example 2). As to conditions: topical, 0.25 h, active ingredient 0.1% w/v, 1.5 ml sprayed, within 15 minutes, read-out: knockdown rate of the test insects within 15 minutes. Put shortly:
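Ten German cockroaches (5 males, 5 females) in a mesh-bottomed, butter-walled container were sprayed with 1.5 ml test solution from 60 cm at 0.42 kg/cm^2 inside a chamber.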

A further experiment deals with Plutella xylostella. The experiment in a line: Foliar spray test on Plutella xylostella on cabbage (Test Example 10). The conditions noted are these: 120 h, third instar larvae of Plutella xylostella on cabbage, 500 ppm spray 20 ml/cup, after five days, read-out: controlling value. The method, then:
On the other hand, cabbage was planted in a polyethylene cup, and grown until the third-fourth true leaf was spread. The test spray solution was sprayed to the cabbage at a ratio of 20 ml/cup. After the drug solution sprayed on the cabbage was dried, 10 third instar larvae of Plutella xylostella were allowed to parasitize the cabbage. After five days, the number of Plutella xylostella was investigated, and the controlling value was calculated according to the following standard. Controlling value (%)={1−(Cb×Tai)/(Cai×Tb)}×100 In the equation, the symbols represent as follows. Cb: the number of insects in a non-treated section before treatment Cai: the number of insects in a non-treated section on observation Tb: the number of insects in a treated section before treatment Tai: the number of insects in a treated section on observation

For a further experiment, the system named is Musca domestica. The experiment in a line: Filter paper/sucrose bait death rate test on Musca domestica (Test Example 5). The conditions noted are these: female imagoes of Musca domestica, 0.7 ml on filter paper, after 24 hours. How it is done: A filter paper having a diameter of 5.5 cm was spread on the bottom of a polyethylene cup having the same diameter and 0.7 ml of the test drug solution was added dropwise onto the filter paper, and 30 mg of sucrose was uniformly placed as bait.
Into the polyethylene cup, 10 female imagoes of Musca domestica were released, and the cup was sealed with a lid. After 24 hours, the life and death of Musca domestica was examined, and the death rate was calculated. The death rate was calculated by the following equation.
Death rate (%)=(Number of dead insects/Number of tested insects)×100

As to `CCCc1cc(C(=O)NCC2CCOC2)no1` (centres unmarked) [(10), N-(tetrahydrofuran-3-ylmethyl)-5-propylisoxazole-3-carboxamide], the pest or weed control at 2 % strength in the experiment on Blattella germanica [1] is at least 80%.

As for `CCCCCc1cc(C(=O)NCC2CCOC2)no1` (centres unmarked) [(12), N-(tetrahydrofuran-3-ylmethyl)-5-pentylisoxazole-3-carboxamide], in the experiment with Culex pipiens pallens, the pest or weed control at 0.1 % strength was at least 80%. Besides, in the experiment with Blattella germanica [1], the pest or weed control at 2 % strength is at least 80%.

Turning to `O=C(NCC1CCOC1)c1cc(COC2CCCC2)on1` (centres unmarked) [(19), N-(tetrahydrofuran-3-ylmethyl)-5-cyclopentyloxymethylisoxazole-3-carboxamide], the pest or weed control at 2 % strength in the experiment on Blattella germanica [1] was at least 80%.

`O=C(NCC1CCOC1)c1cc(COCCc2ccccc2)on1` (centres unmarked) [(25), N-(tetrahydrofuran-3-ylmethyl)-5-(2-phenylethyl)oxymethylisoxazole-3-carboxamide]: the pest or weed control at 0.1 % strength in the experiment with Culex pipiens pallens was at least 80%. In addition, the pest or weed control at 2 % strength in the experiment on Blattella germanica [1] is at least 80%.

As for `CC(OCc1cc(C(=O)NCC2CCOC2)no1)c1ccc2ccccc2c1` (centres unmarked) [(28), N-(tetrahydrofuran-3-ylmethyl)-5-[1-(2-naphthyl)ethyl]oxymethylisoxazole-3-carboxamide], the pest or weed control at 0.1 % strength in the experiment with Culex pipiens pallens is at least 80%. In the experiment on Blattella germanica [1], the pest or weed control at 2 % strength was at least 80%.

On to `COCc1c(F)c(F)c(COCc2cc(C(=O)NCC3CCOC3)no2)c(F)c1F` (centres unmarked) [(29), N-(tetrahydrofuran-3-ylmethyl)-5-(4-methoxymethyl-2,3,5,6-tetrafluorobenzyl)oxymethylisoxazole-3-carboxamide], for which, in the experiment on Culex pipiens pallens, the pest or weed control at 0.1 % strength was at least 80%. Moreover, the pest or weed control at 2 % strength in the experiment with Blattella germanica [1] is at least 80%.

`O=C(NCC1CCCO1)c1cc(COCc2ccccc2)on1` (centres unmarked) [(32), N-(tetrahydrofuran-2-ylmethyl)-5-benzyloxymethylisoxazole-3-carboxamide]: the pest or weed control at 0.1 % strength with Culex pipiens pallens is at least 80%. The pest or weed control at 2 % strength in the experiment with Blattella germanica [1] was at least 80%.

`O=C(NCC1CCCOC1)c1cc(COCc2ccccc2)on1` (centres unmarked) [(37), N-(tetrahydropyran-3-ylmethyl)-5-benzyloxymethylisoxazole-3-carboxamide]: the pest or weed control at 0.1 % strength in the experiment on Culex pipiens pallens was at least 80%. Also, the pest or weed control at 2 % strength in the experiment with Blattella germanica [1] is at least 80%.

Turning to `CCC1(CNC(=O)c2cc(COCc3ccccc3)on2)COCOC1` [(38), N-[5-ethyl-5-(1,3-dioxanylmethyl)]-5-benzyloxymethylisoxazole-3-carboxamide], the pest or weed control at 0.1 % strength with Culex pipiens pallens is at least 80%. Also, in the experiment on Blattella germanica [1], the pest or weed control at 2 % strength is at least 80%.

On to `Cc1cccc(COCc2cc(C(=O)NCC3CCOCC3)no2)c1` [(83), N-(tetrahydropyran-4-ylmethyl)-5-(3-methylbenzyloxymethyl)isoxazole-3-carboxamide], for which the pest or weed control at 0.1 % strength in the experiment on Blattella germanica [2] and in the experiment with Culex pipiens pallens was at least 80% each time. In the experiment with Plutella xylostella, the pest or weed control at 500 ppm was at least 90%.

As for `Cc1ccc(COCc2cc(C(=O)NCC3CCOC3)no2)cc1` (centres unmarked) [(97), N-(tetrahydrofuran-3-ylmethyl)-5-(4-methylbenzyloxymethyl)isoxazole-3-carboxamide], the pest or weed control at 0.1 % strength in the experiment on Blattella germanica [2] and in the experiment on Culex pipiens pallens was at least 80% in each case. In addition, the pest or weed control at 500 ppm in the experiment on Plutella xylostella is at least 90%.

On to `Cc1ccc(COCc2cc(C(=O)NCC3CCOCC3)no2)cc1` [(98), N-(tetrahydropyran-4-ylmethyl)-5-(4-methylbenzyloxymethyl)isoxazole-3-carboxamide], for which the pest or weed control at 0.1 % strength in the experiment with Blattella germanica [2] and in the experiment on Culex pipiens pallens was at least 80% in each case. In the experiment on Plutella xylostella, the pest or weed control at 500 ppm is at least 90%.

In the case of `O=C(NCC1CCOC1)c1cc(COCc2cccc(Oc3ccccc3)c2)on1` (centres unmarked) [(114), N-(tetrahydrofuran-3-ylmethyl)-5-(3-phenoxybenzyloxymethyl) isoxazole-3-carboxamide], the pest or weed control at 0.1 % strength in the experiment with Culex pipiens pallens is at least 80%. Moreover, in the experiment with Blattella germanica [1], the pest or weed control at 2 % strength is at least 80%.

For `O=C(NCC1CCOC1)c1cc(COCCOc2ccccc2)on1` (centres unmarked) [(149), N-(tetrahydrofuran-3-ylmethyl)-5-(2-phenoxyethoxymethyl)isoxazole-3-carboxamide], the pest or weed control at 0.1 % strength with Blattella germanica [2] and in the experiment with Culex pipiens pallens was at least 80% in each case. Also, the pest or weed control at 2 % strength in the experiment with Blattella germanica [1] was at least 80%.

Consider `O=C(NCC1CCOC1)c1cc(COCc2ccc(F)c(F)c2F)on1` (centres unmarked) [(270), N-(tetrahydrofuran-3-ylmethyl)-5-(2,3,4-trifluorobenzyloxymethyl)isoxazole-3-carboxamide], for which the pest or weed control at 500 ppm in the experiment on Musca domestica was at least 90%. Further, the pest or weed control at 0.1 % strength with Blattella germanica [2] and in the experiment with Culex pipiens pallens was at least 80% in each case.

`O=C(NCC1CCOC1)c1cc(COCc2cccc(F)c2F)on1` (centres unmarked) [(274), N-(tetrahydrofuran-3-ylmethyl)-5-(2,3-difluorobenzyloxymethyl)isoxazole-3-carboxamide] returned a pest or weed control at 500 ppm in the experiment with Musca domestica of at least 90%. Moreover, the pest or weed control at 0.1 % strength in the experiment on Blattella germanica [2] and in the experiment on Culex pipiens pallens was at least 80% in each case.

With `O=C(NCC1CCOC1)c1cc(COCc2ccc(F)cc2F)on1` (centres unmarked) [(278), N-(tetrahydrofuran-3-ylmethyl)-5-(2,4-difluorobenzyloxymethyl)isoxazole-3-carboxamide], in the experiment on Musca domestica, the pest or weed control at 500 ppm was at least 90%. The pest or weed control at 0.1 % strength with Blattella germanica [2] and with Culex pipiens pallens was at least 80% each time.

In the experiment on Musca domestica, `Cc1c(C(=O)NCC2CCOC2)noc1COCc1ccccc1F` (centres unmarked) [(286), N-(tetrahydrofuran-3-ylmethyl)-5-(2-fluorobenzyloxymethyl)-4-methylisoxazole-3-carboxamide] registered a pest or weed control at 500 ppm of at least 90%. Besides, the pest or weed control at 0.1 % strength with Blattella germanica [2] and in the experiment with Culex pipiens pallens was at least 80% in each case.

`O=C(NCC1CCOC1)c1cc(Cc2cc(F)cc(F)c2)on1` (centres unmarked) [(305), N-(tetrahydrofuran-3-ylmethyl)-5-(3,5-difluorobenzyl)isoxazole-3-carboxamide] had a pest or weed control at 500 ppm with Musca domestica of at least 90%. Further, the pest or weed control at 0.1 % strength in the experiment on Blattella germanica [2] and in the experiment on Culex pipiens pallens was at least 80% throughout.

`O=C(NCC1CCOC1)c1cc(Cc2ccsc2)on1` (centres unmarked) [(309), N-(tetrahydrofuran-3-ylmethyl)-5-(3-thienylmethyl)isoxazole-3-carboxamide] gave a pest or weed control at 500 ppm in the experiment on Musca domestica of at least 90%. The pest or weed control at 0.1 % strength in the experiment with Blattella germanica [2] and in the experiment with Culex pipiens pallens was at least 80% throughout.

For `COc1ccc(Cc2cc(C(=O)NCC3CCOC3)no2)cc1` (centres unmarked) [(314), N-(tetrahydrofuran-3-ylmethyl)-5-(4-methoxybenzyl)isoxazole-3-carboxamide], the pest or weed control at 500 ppm in the experiment with Musca domestica is at least 90%. The pest or weed control at 0.1 % strength in the experiment with Blattella germanica [2] and in the experiment with Culex pipiens pallens was at least 80% throughout.

The compound `O=C(NCC1CCOC1)c1cc(Cc2ccc(F)cc2)on1` (centres unmarked) [(319), N-(tetrahydrofuran-3-ylmethyl)-5-(4-fluorobenzyl)isoxazole-3-carboxamide] registered a pest or weed control at 500 ppm in the experiment with Musca domestica of at least 90%. Besides, the pest or weed control at 0.1 % strength with Blattella germanica [2] and in the experiment on Culex pipiens pallens was at least 80% in each case.

For the compound `O=C(NCC1CCOC1)c1cc(Cc2ccc(Cl)cc2)on1` (centres unmarked) [(322), N-(tetrahydrofuran-3-ylmethyl)-5-(4-chlorobenzyl)isoxazole-3-carboxamide], in the experiment with Musca domestica, the pest or weed control at 500 ppm was at least 90%. Moreover, the pest or weed control at 0.1 % strength in the experiment on Blattella germanica [2] and in the experiment with Culex pipiens pallens was at least 80% in each case.

Regarding `O=C(NCC1CCOC1)c1cc(Cc2ccc(F)c(F)c2F)on1` (centres unmarked) [(324), N-(tetrahydrofuran-3-ylmethyl)-5-(2,3,4-trifluorobenzyl)isoxazole-3-carboxamide], in the experiment on Musca domestica, the pest or weed control at 500 ppm is at least 90%. Further, the pest or weed control at 0.1 % strength in the experiment on Blattella germanica [2] and with Culex pipiens pallens was at least 80% each time.

With `O=C(NCC1COC1)c1cc(COCc2ccccc2)on1` [(337), N-(oxetan-3-ylmethyl)-5-benrzyloxymethylisoxazole-3-carboxamide], the pest or weed control at 0.1 % strength in the experiment with Culex pipiens pallens is at least 80%. For the same compound, the pest or weed control at 2 % strength in the experiment with Blattella germanica [1] was at least 80%.

The values are drawn from patent US20150344466A1 (SUMITOMO CHEMICAL COMPANY, LIMITED, priority 2013, published 2015).
